Key:
hippocampus cells = details: culture of hippocampus cells; cited from earlier work
[1] = system: thromboembolism model of focal cerebral ischemia; details: rat thromboembolism model; synergic with rtPA; cited from earlier work
[2] = system: occlusion of the middle cerebral artery; details: adult rat; uric acid 24 hours before the occlusion or 1 hour after the reperfusion; cited from earlier work
[3] = system: patients with acute stroke; details: URICO-ICTUS phase 2b/3, cited from earlier work
[4] = system: patients with ischemic brain stroke not treated with mechanical thrombectomy; test: Same type of study in ischemic brain stroke patients not treated with mechanical thrombectomy; type: in vivo, humans
Experimental: (§1) All patients that were selected for the study received one standard dose ([…]) of rtPA (in the present case, intravenous alteplase) within the 4.5 hours following the brain stroke. During infusion of intravenous alteplase, patients were assigned randomly in a 1:1 proportion to the uric acid group or to the placebo group, so that they received 500 ml of intravenous solution of 1000 mg of uric acid or placebo (physiologic serum comprising 0.1% […] and 5% mannitol), respectively, both contained in glass bottles covered with opaque yellow bags tag in identical manner. Said treatment with uric acid or placebo was applied during 90 minutes.
The same type of study was carried out with other subpopulations with ischemic brain stroke (not treated with mechanical thrombectomy, but the rest of the treatment and the procedure was the same).

[5] = system: ischemic brain stroke patients treated with mechanical thrombectomy; test: Treatment with uric acid of ischemic brain stroke patients treated with intravenous thrombolysis and mechanical thrombectomy; type: in vivo, humans
Excerpt: Example 1. Treatment with uric acid of ischemic brain stroke patients treated with intravenous thrombolysis and mechanical thrombectomy.
In total, 45 ischemic brain stroke patients were enrolled in this study and received the combination of thrombolytic treatment (using rt-PA) and mechanical thrombectomy. […] The patients of this study were recruited at eight centres and, in all the cases, the corresponding informed consent was obtained from the patient or its legal representative.
as §1
The mechanical thrombectomy procedure was carried in accordance to the procedure pointed out in the REVASCAT assay (Jovin T G, Chamorro A, Cobo E, de Miguel M A, Molina C A, Rovira A, San Román L, Serena J, Abilleira S, Ribó M, Millán M, Urra X, Cardona P, López-Cancio E, Tomasello A, Castaño C, Blasco J, Aja L, Dorado L, Quesada H, Rubiera M, Hernandez-Pérez M, Goyal M, Demchuk A M, von Kummer R, Gallofré M, Dávalos A; REVASCAT Trial Investigators.. Thrombectomy within 8 hours after symptom onset in ischemic stroke. N Engl J Med. 2015; 372:2296-306) and it was started before the 90 minutes of the infusion of the composition with uric acid or placebo had elapsed.
To determine if the revascularization was successful the conventional technique of digital angiography by subtraction was used. Successful vessel revascularization was considered that with grade 2b (indicating reperfusion of from 50% to 90% of the damaged zone), or grade 3 (complete reperfusion of the damaged zone) in accordance with the modified Thrombolysis in Cerebral Infarction (hereinafter, mTICI) scale of 0 to 3.
In addition, certain parameters (death, incidence of intracranial hemorrhages and incidence of gout attacks) were measured in order to determine the safety of the new treatment (treatment of the present invention).

[6] = Patients which consume alcohol, uric acid n = 10
[7] = Patients which have suffered previous brain stroke, uric acid n = 30
[8] = Patients with atrial fibrillation, uric acid n = 35
[9] = Patients with cardioembolism, uric acid n = 86
[10] = Patients with coronary disease, uric acid n = 31
[11] = Patients with diabetes, uric acid n = 55
[12] = Patients with dyslipidaemia, uric acid n = 81
[13] = Smoking patients, uric acid n = 35
[14] = Women patients, uric acid n = 100
[15] = general population not treated with mechanical thrombectomy, uric acid n = 187
[16] = in words, general population without mechanical thrombectomy
[17] = in words, with mechanical thrombectomy
[18] = with mechanical thrombectomy, uric acid group n = 24

O=c1[nH]c(=O)c2[nH]c(=O)[nH]c2[nH]1 [Uric acid, uric acid]
protection against excitotoxic damage by glutamate (hippocampus cells): protects against excitotoxic damage by glutamate
neuroprotective effect [1]: neuroprotective
lipid peroxidation [2]: reduces
reactive oxygen species accumulation [2]: suppresses
resulting cerebral infarction [2]: significantly reduces
safety of uric acid in combination with the standard thrombolytic treatment (alteplase) [3]: safe
proportion of patients with excellent results at 90 days ([3]; combined with alteplase): no change was seen
Barthel index score of 95-100 at 90 days, % ([4]; Men patients, uric acid n = 87): (50.6) %
mRS score of between 0-2 at 90 dies, % ([4]; Men patients, uric acid n = 87): (51.7) %
Barthel index score of 95-100 at 90 days, % [4, 6]: (20) %
mRS score of between 0-2 at 90 dies, % [4, 6]: (40) %
Barthel index score of 95-100 at 90 days, % [4, 7]: (40) %
mRS score of between 0-2 at 90 dies, % [4, 7]: (43.3) %
Barthel index score of 95-100 at 90 days, % [4, 8]: (31.4) %
mRS score of between 0-2 at 90 dies, % [4, 8]: (42.9) %
Barthel index score of 95-100 at 90 days, % [4, 9]: (45.3) %
mRS score of between 0-2 at 90 dies, % [4, 9]: (48.8) %
Barthel index score of 95-100 at 90 days, % [4, 10]: (51.6) %
mRS score of between 0-2 at 90 dies, % [4, 10]: (45.2) %
Barthel index score of 95-100 at 90 days, % [4, 11]: (45.8) %
mRS score of between 0-2 at 90 dies, % [4, 11]: (45.5) %
Barthel index score of 95-100 at 90 days, % [4, 12]: (50.6) %
mRS score of between 0-2 at 90 dies, % [4, 12]: (49.4) %
mRS score of between 0-2 at 90 dies, % ([4]; Patients with hypertension (arterial pressure over 160 mmHg), uric acid n = 131): (48.9) %
Barthel index score of 95-100 at 90 days, % ([4]; Patients with hypertension, uric acid n = 131): (45.8) %
mRS score of between 0-2 at 90 dies, % ([4]; Patients with large vessel arteriosclerosis (arterial stenosis +2250%), uric acid n = 19): (31.6) %
Barthel index score of 95-100 at 90 days, % ([4]; Patients with large vessel arteriosclerosis, uric acid n = 19): (21.1) %
Barthel index score of 95-100 at 90 days, % [4, 13]: (42.9) %
mRS score of between 0-2 at 90 dies, % [4, 13]: (50) %
Barthel index score of 95-100 at 90 days, % [4, 14]: (42) %
mRS score of between 0-2 at 90 dies, % [4, 14]: (50) %
Barthel index score of 95-100 at 90 days, % [4, 15]: 45.6%
mRS score of between 0-2 at 90 dies, % [4, 15]: 44.7%
effect in the percentage of patients with Barthel index score 95-100 [4, 16]: only a minimal effect
effect in the percentage of patients with an mRS score of between 0 and 2 at 90 days [4, 16]: did not show a detectable effect
successfulness in the revascularization, uric acid vs placebo ([5]; in words, mTICI grade 2b or 3): no significant differences
complete independence of the patients at 90 days (Barthel index score of 95-100), uric acid vs placebo [5, 17]: statistically significant and surprising improvement
good results at 90 days (mRS score of between 0-2), uric acid vs placebo [5, 17]: statistically significant and surprising improvement
growth of the infarcted zone at 72 hours from the treatment, uric acid vs placebo [5, 17]: statistically significant and surprising improvement
rest of measured parameters, uric acid vs placebo [5, 17]: positive and improvement tendency
safety: death, incidence of intracranial hemorrhages and incidence of gout attacks, uric acid vs placebo [5, 17]: no differences were observed
mTICI Score 0, number of patients ([5]; revascularization by digital subtraction angiography, uric acid 1000 mg i.v. + rtPA + mechanical thrombectomy, n = 24): 3
mTICI Score 0, share of group (in parentheses) ([5]; revascularization by digital subtraction angiography, uric acid group n = 24): (13)
mTICI Score 1, number of patients ([5]; uric acid group n = 24): 0
mTICI Score 2a, number of patients ([5]; uric acid group n = 24): 1
mTICI Score 2a, share of group (in parentheses) ([5]; uric acid group n = 24): (4)
mTICI Score 2b, number of patients ([5]; uric acid group n = 24): 7
mTICI Score 2b, share of group (in parentheses) ([5]; uric acid group n = 24): (29)
mTICI Score 2b/3 (successful revascularization), number of patients ([5]; uric acid group n = 24): 20
mTICI Score 2b/3 (successful revascularization), share of group (in parentheses) ([5]; uric acid group n = 24): (83)
mTICI Score 3, number of patients ([5]; uric acid group n = 24): 13
mTICI Score 3, share of group (in parentheses) ([5]; uric acid group n = 24): (54)
mRS score of between 0-2 at 90 días, % ([5]; with mechanical thrombectomy, uric acid 1000 mg i.v. + rtPA, n = 24): (66.6) %
Barthel index score of 95-100 at 90 days, % [5, 18]: (66.6) %
Growth of the infarcted zone at 72 hours of the treatment, mean [5, 18]: -33.2 mL
NIHSS score 0 at 90 days, % [5, 18]: (37.5) %
Volume of the infarcted zone at 72 hours of the treatment measured by means of magnetic resonance image of the brain, mean [5, 18]: 17.2

— US10709710B2, “Composition comprising uric acid for the treatment treated with mechanical thrombectomy” (Hospital Clinic de Barcelona, priority 2017, dated 2020)
